Data reported in US10889609B2, “Mannitol-based amphipathic compound and use thereof” (Industry-University Cooperation Foundation Hanyang …, priority 2015, dated 2021).
Values joined by “and” are separate entries in the source; they are usually repeats but may differ in a detail not shown here. Identical values can stand only once.

Columns and labels:
[1] = Hydrodynamic radius and size distribution of micelles by dynamic light scattering (DLS); format: physicochemical
Excerpt: A method of measuring the radius of the micelle is not particularly limited, but the methods widely known in the related art may be used. For example, the radius of the micelle may be measured using a dynamic light scattering (DLS) experiment.
(§1) To determine characteristics of the MNAs of Preparative Example 1 to 10 synthesized according to the synthesis method of Example 1, the molecular weights (M.W.) and critical micellar concentrations (CMCs) of the MNAs and the hydrodynamic radii (Rh) of the formed micelles were measured.
(§2) Specifically, the critical micellar concentration (CMC) was measured using a hydrophobic fluorescence stain (diphenylhexatriene (DPH)), and the hydrodynamic radii (Rh) of the micelles formed by each of the preparations were measured by a dynamic light scattering (DLS) experiment. The measured results were compared to those of DDM that is a conventional amphipathic molecule (a detergent), and are listed in Table 1.
Meanwhile, the size distributions of the micelles formed by the MNAs were measured using DLS, and the measurement results are shown in FIG. 17. The MNAs were used at a content of 1.0% by weight.

[2] = Critical micellar concentration (CMC) by hydrophobic fluorescence stain diphenylhexatriene (DPH); format: physicochemical
Excerpt: A method of measuring the CMC is not particularly limited, but the methods widely known in the related art may be used. For example, the CMC may be measured by a fluorescence detection method using diphenylhexatriene (DPH).
as §1, §2

boron transporter (Bor1) = target: T1, boron transporter (Bor1) (Arabidopsis thaliana, UniProt Q8VYR7); test: Structural stability and extraction of Bor1 by heat fluorescence size exclusion chromatography (hFSEC); conditions: for level of Bor1 protein aggregation after heat treatment: 40° C. for 10 minutes, FIG. 18
T1 construct: made in house; host or cells: Saccharomyces cerevisiae FGY217
T1 sequence (Q8VYR7 whole entry): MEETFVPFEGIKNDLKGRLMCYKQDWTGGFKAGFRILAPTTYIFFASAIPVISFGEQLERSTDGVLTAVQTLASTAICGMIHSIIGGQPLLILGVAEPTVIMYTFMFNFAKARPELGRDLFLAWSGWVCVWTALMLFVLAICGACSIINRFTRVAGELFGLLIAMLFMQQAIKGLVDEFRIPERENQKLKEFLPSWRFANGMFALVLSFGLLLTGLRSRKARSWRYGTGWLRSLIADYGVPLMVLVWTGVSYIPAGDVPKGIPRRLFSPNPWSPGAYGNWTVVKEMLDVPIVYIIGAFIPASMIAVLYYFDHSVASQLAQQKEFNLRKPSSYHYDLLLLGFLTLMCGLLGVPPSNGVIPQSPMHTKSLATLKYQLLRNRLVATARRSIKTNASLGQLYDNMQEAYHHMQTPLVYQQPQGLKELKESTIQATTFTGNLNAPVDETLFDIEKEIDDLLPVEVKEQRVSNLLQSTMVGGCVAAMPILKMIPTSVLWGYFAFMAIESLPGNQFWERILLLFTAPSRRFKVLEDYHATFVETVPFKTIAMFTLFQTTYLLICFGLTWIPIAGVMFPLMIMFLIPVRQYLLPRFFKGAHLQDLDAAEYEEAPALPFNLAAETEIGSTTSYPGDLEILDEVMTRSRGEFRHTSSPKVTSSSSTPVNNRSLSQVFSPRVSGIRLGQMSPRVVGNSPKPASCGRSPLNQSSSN
Method: An experiment for measuring the structural stability of a boron transporter (Bor1) by the MNAs was performed. The structural stability of Bor1 was measured using heat fluorescence size exclusion chromatography (hFSEC), and the concentrations of the MNAs and DDM were CMC plus 0.04% by weight. Specifically, Bor1 of Arabidopsis thaliana was expressed in Saccharomyces cerevisiae FGY217 cells as a fusion protein having a C-terminal GFP-His tag. The cells were grown in a -URA medium supplemented with 0.1% glucose. Expression of proteins was induced by adding 2% galactose, and the cells were then cultured at 20° C. for 18 hours. Here, the cell culture was carried out according to the method described in the article by D. Drew et al. (Nat. Protoc. 2008, 3, 784-798.). The cells were collected to prepare membranes, and the cell collection was carried out according to the method described in the article by J. Leung et al. (Protein Expr. Purif. 2010, 72, 139-146.). The membranes including the Bor1-GFP fusion protein were diluted with phosphate-buffered saline (PBS, pH 7.4) until the final concentration of the total proteins reached 2.8 mg/mL. In this case, 1% by weight of DDM or 1% by weight of MNA (MNA-1, MNA-2, MNA-3, MNA-4, MNA-5, MNA-6, or MNA-7) was added to the PBS. Samples were incubated for an hour while shaking at 4° C., and insoluble materials were then removed by centrifugation at 14,000 g and 4° C. for an hour. The supernatant including the dissolved protein samples was heated at 40° C. for 10 minutes, and the strongly aggregated proteins were removed by centrifugation at 14,000 g and 4° C. for 10 minutes. 200 μL of the supernatant of the samples was injected into a Superose 6 10/300 column equilibrated with 20 mM Tris (pH 7.5), 150 mM NaCl, and 0.03% DDM. Each of elution fractions was collected in 200 μL fractions at a retention volume of 6.4 mL (e.g., 6.4 mL after elusion) in a clear bottom 96-well plate. The GFP fluorescence of each of the fractions was measured at an excitation wavelength of 470 nm and an emission wavelength of 512 nm.

[3] = target: T2, human β2 adrenergic receptor (β2AR) (Homo sapiens, UniProt P07550); test: Negative-stain electron microscopy (EM) of β2AR dissolved in detergent; conditions: negative staining, compared to DDM, FIG. 24
T2 construct: made in house
T2 sequence (P07550 whole entry): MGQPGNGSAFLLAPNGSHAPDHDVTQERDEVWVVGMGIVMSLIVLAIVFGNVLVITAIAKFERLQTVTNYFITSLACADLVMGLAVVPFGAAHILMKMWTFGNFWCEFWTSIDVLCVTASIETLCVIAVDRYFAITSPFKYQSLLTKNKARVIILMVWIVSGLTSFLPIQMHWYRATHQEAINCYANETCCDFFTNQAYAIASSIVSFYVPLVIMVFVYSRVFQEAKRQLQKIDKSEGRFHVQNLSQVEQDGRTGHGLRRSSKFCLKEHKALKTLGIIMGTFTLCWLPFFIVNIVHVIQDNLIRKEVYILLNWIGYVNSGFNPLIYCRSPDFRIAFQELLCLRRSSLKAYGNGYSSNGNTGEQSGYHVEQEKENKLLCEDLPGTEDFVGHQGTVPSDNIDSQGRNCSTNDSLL
Method: A β2AR protein analysis test was performed for DDM, MNA-6, or MNA-7 using an electron microscope.
Specifically, samples were prepared using the conventional negative staining protocol disclosed in the article by M. Ohi et al. (Biol. Proced. Online 2004, 6, 23-34.). In summary, 3 μL of β2AR dissolved in DDM, MNA-6, or MNA-7 was pipetted onto a glow-discharged carbon-coated grid, and stained with 1% (w/v) uranyl formate. Thereafter, the β2AR was imaged at room temperature by running a Morgagni 268(D) transmission electron microscope (FEI Company) at 100 kV. The images were recorded at 30,416×calibrated magnification using an Orius SC200W CCD camera (Gatan Inc.).

[4] = target: T2, human β2 adrenergic receptor (β2AR); test: mBBr-β2AR bimane spectra at detergent concentration below CMC; format: biochemical; conditions: detergent diluted to a fiftieth of its CMC, compared to DDM, FIG. 21
Method: Experiments for comparing the structural changes of the β2AR protein by the MNAs and DDM at a concentration below CMCs of the amphipathic molecules were performed.
Specifically, 0.5 μL of a non-ligand mBBr-labeled receptor dissolved at 50 μNI in a 20×CMC concentration of MNA-5, MNA-6, or MNA-7 was diluted with 500 μL of an NH buffer (20 mM HEPES pH 7.5, and 100 mM NaCl). The proteins were cultured for 30 minutes, and the bimane spectra thereof were measured. The receptor dissolved in 0.1% DDM was diluted with the NH buffer, and used as the control. Data was presented as an average of three separate experiments performed in triplicate.

[5] = target: T2, human β2 adrenergic receptor (β2AR); test: Size exclusion chromatography (SEC) of β2AR protein-detergent complexes (PDCs); conditions: Superdex-200, FIG. 23
Method: An SEC analysis was performed to determine the size of the protein-amphipathic molecule complex (i.e., a protein-detergent complex (PDC)) formed by DDM, MNA-6, or MNA-7.
Specifically, the β2AR dissolved in DDM, MNA-6 or MNA-7 was used as a test sample in the same manner as used in Example 5-3. The sample was loaded onto a Superdex-200 10/300 GL column (GE Healthcare) at 0.5 ml/min, an innate tryptophane fluorescence signal was measured at an excitation wavelength of 295 nm and an emission wavelength of 345 nm. A running buffer includes 20 mM HEPES pH 7.5, 100 mM NaCl, and 20×CMC MNA-6 or MNA-7. A difference in retention volume of the protein samples means a difference in size of the protein-detergent complexes (PDCs) formed in the presence of the amphipathic molecules.

| SMILES | Rh (nm), hydrodynamic radius of micelles [1] | CMC ([2]; aqueous solution) | CMC value [2] | CMC (% by weight) ([2]; aqueous solution) | Bor1 extraction efficiency (boron transporter (Bor1); 1% by weight detergent, membranes with Bor1-GFP) | level of Bor1 protein aggregation after heat treatment (boron transporter (Bor1); hFSEC) | EM image background of dissolved β2AR [3] | stability of β2AR [4] | size of β2AR protein-detergent complexes (PDCs) [5] | effect on stabilization of Bor1 (boron transporter (Bor1); hFSEC, aggregation level and size of target protein peak) |
| --- | --- | --- | --- | --- | --- | --- | --- | --- | --- | --- |
| CCCCCCCCCO[C@H]([C@@H](OCCCCCCCCC)[C@H](CO[C@@H]1OC(CO)[C@@H](O)C(O)C1O)O[C@@H]1OC(CO)[C@@H](O)C(O)C1O)[C@H](CO[C@@H]1OC(CO)[C@@H](O)C(O)C1O)O[C@@H]1OC(CO)[C@@H](O)C(O)C1O (some centres unmarked) [MNA-2] | 2.5 nm and 2.5 ± 0.05 nm | ~0.05 mM | – | – | – | – | – | – | – | – |
| CCCCCCCCCCCCCCCCCO[C@H]([C@@H](OCCCCCCCCCCCCCCCCC)[C@H](CO[C@@H]1OC(CO)[C@@H](O)C(O)C1O)O[C@@H]1OC(CO)[C@@H](O)C(O)C1O)[C@H](CO[C@@H]1OC(CO)[C@@H](O)C(O)C1O)O[C@@H]1OC(CO)[C@@H](O)C(O)C1O (some centres unmarked) [MNA-10] | 4.1 nm and 4.1 ± 0.2 nm | ~0.001 mM | 1 µM | – | – | – | – | – | – | – |
| CCCCCCCCCCCCO[C@@H]1O[C@H](CO)[C@@H](O[C@H]2O[C@H](CO)[C@@H](O)[C@H](O)[C@H]2O)[C@H](O)[C@H]1O [DDM, n-dodecyl-β-D-maltopyranoside, reference compound] | 3.4 nm and 3.4 ± 0.03 nm | ~0.17 mM | 170 µM | Approximately 0.0087 % by weight | 80% | significant level of protein aggregation | – | – | – | – |
| CCCCCCCCCCCO[C@H]([C@@H](OCCCCCCCCCCC)[C@H](CO[C@@H]1OC(CO)[C@@H](O)C(O)C1O)O[C@@H]1OC(CO)[C@@H](O)C(O)C1O)[C@H](CO[C@@H]1OC(CO)[C@@H](O)C(O)C1O)O[C@@H]1OC(CO)[C@@H](O)C(O)C1O (some centres unmarked) [MNA-4] | 2.9 nm and 2.9 ± 0.12 nm | ~0.006 mM | – | – | – | level of protein aggregation similar to DDM | – | – | – | – |
| CCCCCCCCCCCCCO[C@H]([C@@H](OCCCCCCCCCCCCC)[C@H](CO[C@@H]1OC(CO)[C@@H](O)C(O)C1O)O[C@@H]1OC(CO)[C@@H](O)C(O)C1O)[C@H](CO[C@@H]1OC(CO)[C@@H](O)C(O)C1O)O[C@@H]1OC(CO)[C@@H](O)C(O)C1O (some centres unmarked) [MNA-6] | 3.3 nm and 3.3 ± 0.04 nm | ~0.002 mM | 2 µM | – | – | lower level of Bor1 aggregation than DDM | uniform background clutter that were relatively smaller in quantity | secured for a prolonged period of time | smaller in size compared to those formed by DDM | best effect on stabilization of the Bor1 |
| CCCCCCCCO[C@H]([C@@H](OCCCCCCCC)[C@H](CO[C@@H]1OC(CO)[C@@H](O)C(O)C1O)O[C@@H]1OC(CO)[C@@H](O)C(O)C1O)[C@H](CO[C@@H]1OC(CO)[C@@H](O)C(O)C1O)O[C@@H]1OC(CO)[C@@H](O)C(O)C1O (some centres unmarked) [MNA-1] | 2.3 nm and 2.3 ± 0.13 nm | ~0.15 mM | – | – | – | – | – | – | – | – |
| CCCCCCCCCCCCCCCO[C@H]([C@@H](OCCCCCCCCCCCCCCC)[C@H](CO[C@@H]1OC(CO)[C@@H](O)C(O)C1O)O[C@@H]1OC(CO)[C@@H](O)C(O)C1O)[C@H](CO[C@@H]1OC(CO)[C@@H](O)C(O)C1O)O[C@@H]1OC(CO)[C@@H](O)C(O)C1O (some centres unmarked) [MNA-8] | 3.5 nm and 3.5 ± 0.1 nm | ~0.003 mM | – | – | – | – | – | – | – | – |
| CCCCCCCCCCCCCCCCO[C@H]([C@@H](OCCCCCCCCCCCCCCCC)[C@H](CO[C@@H]1OC(CO)[C@@H](O)C(O)C1O)O[C@@H]1OC(CO)[C@@H](O)C(O)C1O)[C@H](CO[C@@H]1OC(CO)[C@@H](O)C(O)C1O)O[C@@H]1OC(CO)[C@@H](O)C(O)C1O (some centres unmarked) [MNA-9] | 3.8 nm and 3.8 ± 0.1 nm | ~0.001 mM | 1 µM | – | – | – | – | – | – | – |
| CCCCCCCCCCO[C@H]([C@@H](OCCCCCCCCCC)[C@H](CO[C@@H]1OC(CO)[C@@H](O)C(O)C1O)O[C@@H]1OC(CO)[C@@H](O)C(O)C1O)[C@H](CO[C@@H]1OC(CO)[C@@H](O)C(O)C1O)O[C@@H]1OC(CO)[C@@H](O)C(O)C1O (some centres unmarked) [MNA-3] | 2.7 nm and 2.7 ± 0.04 nm | ~0.015 mM | – | – | – | – | – | – | – | – |
| CCCCCCCCCCCCCCO[C@H]([C@@H](OCCCCCCCCCCCCCC)[C@H](CO[C@@H]1OC(CO)[C@@H](O)C(O)C1O)O[C@@H]1OC(CO)[C@@H](O)C(O)C1O)[C@H](CO[C@@H]1OC(CO)[C@@H](O)C(O)C1O)O[C@@H]1OC(CO)[C@@H](O)C(O)C1O (some centres unmarked) [MNA-7] | 3.3 nm and 3.3 ± 0.08 nm | ~0.001 mM | 1 µM | – | – | lower level of Borl aggregation than DDM | uniform background clutter that were relatively smaller in quantity | secured for a prolonged period of time | smaller in size compared to those formed by DDM | – |
